Measurements taken from patent publication US20230085307A1, “PYRIDAZINONE COMPOUND AND HERBICIDE” (NISSAN CHEMICAL CORPORATION, priority 2019, published 2023).

How the values were obtained:
barnyard grass [1] = experiment: Test Example 3: herbicidal effect by foliage application, Wagner pot (Table 18, symbol H); type: in vivo, barnyard grass (Echinochloa crus-galli)
Summary of the method: (§1)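 Plants were sown in alluvial soil held under 0.1–0.5 cm standing water and grown 14 days in a greenhouse at 25–30 °C. An emulsifiable formulation, water-diluted to the set dose, was then sprayed onto the foliage, and effects were scored three weeks later using previously defined criteria.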

redroot pigweed [2] = experiment: Test Example 4: herbicidal effect by soil treatment (Table 19, symbol N); type: in vivo, redroot pigweed (Amaranthus retroflexus)
Summary of the method: (§2)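 Herbicidal effect was rated 3 weeks after treatment, using the scoring criteria of an earlier test. The compound, formulated as an emulsion and diluted in water to a set herbicide amount, had been sprayed uniformly on soil over freshly sown seeds. Growth took place in a greenhouse at 25° C. to 30° C.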

blackgrass [3] = experiment: Test Example 5: herbicidal effect by foliage application, plastic box (Table 20, symbol J); type: in vivo, blackgrass (Alopecurus myosuroides); conditions: foliage application, three weeks after application
Summary of the method: (§3)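 Foliar spray test: emulsion formulation diluted in water to a set application rate, sprayed onto 14-day-old plants raised in diluvial soil at 25° C to 30° C under glass. Both herbicidal effect and crop effect rated visually three weeks later.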

green foxtail [4] = experiment: Test Example 4: herbicidal effect by soil treatment (Table 19, symbol G); type: in vivo, green foxtail (Setaria viridis)
Summary of the method: as §2

barnyard grass [5] = experiment: Test Example 5: herbicidal effect by foliage application, plastic box (Table 20, symbol H); type: in vivo, barnyard grass (Echinochloa crus-galli); conditions: foliage application, three weeks after application
Summary of the method: as §3

windgrass [6] = experiment: Test Example 5: herbicidal effect by foliage application, plastic box (Table 20, symbol L); type: in vivo, windgrass (Apera spica-venti); conditions: foliage application, three weeks after application
Summary of the method: as §3

chickweed [7] = experiment: Test Example 5: herbicidal effect by foliage application, plastic box (Table 20, symbol P); type: in vivo, common chickweed (Stellaria media); conditions: foliage application, three weeks after application
Summary of the method: as §3

velvetleaf [8] = experiment: Test Example 5: herbicidal effect by foliage application, plastic box (Table 20, symbol M); type: in vivo, velvetleaf (Abutilon theophrasti); conditions: foliage application, three weeks after application
Summary of the method: as §3

chickweed [9] = experiment: Test Example 4: herbicidal effect by soil treatment (Table 19, symbol P); type: in vivo, common chickweed (Stellaria media)
Summary of the method: as §2

wild oat [10] = experiment: Test Example 4: herbicidal effect by soil treatment (Table 19, symbol I); type: in vivo, wild oat (Avena fatua)
Summary of the method: as §2

lambsquarters [11] = experiment: Test Example 5: herbicidal effect by foliage application, plastic box (Table 20, symbol O); type: in vivo, lambsquarters (Chenopodium album); conditions: foliage application, three weeks after application
Summary of the method: as §3

blackgrass [12] = experiment: Test Example 4: herbicidal effect by soil treatment (Table 19, symbol J); type: in vivo, blackgrass (Alopecurus myosuroides)
Summary of the method: as §2

false cleavers = experiment: Test Example 4: herbicidal effect by soil treatment (Table 19, symbol Q); type: in vivo, false cleavers (Galium spurium)
Summary of the method: as §2

Italian ryegrass [13] = experiment: Test Example 4: herbicidal effect by soil treatment (Table 19, symbol K); type: in vivo, Italian ryegrass (Lolium multiflorum)
Summary of the method: as §2

wild oat [14] = experiment: Test Example 5: herbicidal effect by foliage application, plastic box (Table 20, symbol I); type: in vivo, wild oat (Avena fatua); conditions: foliage application, three weeks after application
Summary of the method: as §3

persian speedwell [15] = experiment: Test Example 5: herbicidal effect by foliage application, plastic box (Table 20, symbol R); type: in vivo, Persian speedwell (Veronica persica); conditions: foliage application, three weeks after application
Summary of the method: as §3

southern crabgrass [16] = experiment: Test Example 5: herbicidal effect by foliage application, plastic box (Table 20, symbol F); type: in vivo, southern crabgrass (Digitaria ciliaris); conditions: foliage application, three weeks after application
Summary of the method: as §3

southern crabgrass [17] = experiment: Test Example 4: herbicidal effect by soil treatment (Table 19, symbol F); type: in vivo, southern crabgrass (Digitaria ciliaris)
Summary of the method: as §2

velvetleaf [18] = experiment: Test Example 4: herbicidal effect by soil treatment (Table 19, symbol M); type: in vivo, velvetleaf (Abutilon theophrasti)
Summary of the method: as §2

Italian ryegrass [19] = experiment: Test Example 5: herbicidal effect by foliage application, plastic box (Table 20, symbol K); type: in vivo, Italian ryegrass (Lolium multiflorum); conditions: foliage application, three weeks after application
Summary of the method: as §3

windgrass [20] = experiment: Test Example 4: herbicidal effect by soil treatment (Table 19, symbol L); type: in vivo, windgrass (Apera spica-venti)
Summary of the method: as §2

persian speedwell [21] = experiment: Test Example 4: herbicidal effect by soil treatment (Table 19, symbol R); type: in vivo, Persian speedwell (Veronica persica)
Summary of the method: as §2

green foxtail [22] = experiment: Test Example 5: herbicidal effect by foliage application, plastic box (Table 20, symbol G); type: in vivo, green foxtail (Setaria viridis); conditions: foliage application, three weeks after application
Summary of the method: as §3

rice flat sedge = experiment: Test Example 3: herbicidal effect by foliage application, Wagner pot (Table 18, symbol E); type: in vivo, rice flat sedge (Cyperus iria)
Summary of the method: as §1

lambsquarters [23] = experiment: Test Example 4: herbicidal effect by soil treatment (Table 19, symbol O); type: in vivo, lambsquarters (Chenopodium album)
Summary of the method: as §2

Chinese sprangletop = experiment: Test Example 3: herbicidal effect by foliage application, Wagner pot (Table 18, symbol D); type: in vivo, chinese sprangletop (Leptochloa chinensis)
Summary of the method: as §1

redroot pigweed [24] = experiment: Test Example 5: herbicidal effect by foliage application, plastic box (Table 20, symbol N); type: in vivo, redroot pigweed (Amaranthus retroflexus); conditions: foliage application, three weeks after application
Summary of the method: as §3

barnyard grass [25] = experiment: Test Example 4: herbicidal effect by soil treatment (Table 19, symbol H); type: in vivo, barnyard grass (Echinochloa crus-galli)
Summary of the method: as §2

[26] = amount of applied herbicide 320 g/ha

CCCC(=O)Oc1c(C)nn(C)c(=O)c1-c1c(-c2ccc(F)cc2SC)sc2ccccc12 [1-064]
herbicidal effect on H (barnyard grass), rating 0-5 (barnyard grass [1]; 320 g/ha): 3 (Herbicidal rate of 40% or more and less than 70%) | herbicidal effect rating, N: redroot pigweed (redroot pigweed [2]; [26]): 0 (Herbicidal rate of 5% or less (almost no effect)) | herbicidal effect grade, J: blackgrass (blackgrass [3]; 320 g/ha): 0 (Herbicidal rate of 5% or less (almost no effect)) | herbicidal effect rating, G: green foxtail (green foxtail [4]; [26]): 0 (Herbicidal rate of 5% or less (almost no effect)) | herbicidal effect grade, H: barnyard grass (barnyard grass [5]; 320 g/ha): 0 (Herbicidal rate of 5% or less (almost no effect)) | herbicidal effect grade, L: windgrass (windgrass [6]; 320 g/ha): 0 (Herbicidal rate of 5% or less (almost no effect)) | herbicidal effect grade, P: chickweed (chickweed [7]; 320 g/ha): 4 (Herbicidal rate of 70% or more and less than 90%) | herbicidal effect grade, M: velvetleaf (velvetleaf [8]; 320 g/ha): 0 (Herbicidal rate of 5% or less (almost no effect)) | herbicidal effect rating, P: chickweed (chickweed [9]; [26]): 3 (Herbicidal rate of 40% or more and less than 70%) | herbicidal effect rating, I: wild oat (wild oat [10]; [26]): 0 (Herbicidal rate of 5% or less (almost no effect)) | herbicidal effect grade, O: lambsquarters (lambsquarters [11]; 320 g/ha): 0 (Herbicidal rate of 5% or less (almost no effect)) | herbicidal effect rating, J: blackgrass (blackgrass [12]; [26]): 0 (Herbicidal rate of 5% or less (almost no effect)) | herbicidal effect rating, Q: false cleavers (false cleavers; [26]): 0 (Herbicidal rate of 5% or less (almost no effect)) | herbicidal effect rating, K: Italian ryegrass (Italian ryegrass [13]; [26]): 0 (Herbicidal rate of 5% or less (almost no effect)) | herbicidal effect grade, I: wild oat (wild oat [14]; 320 g/ha): 0 (Herbicidal rate of 5% or less (almost no effect)) | herbicidal effect grade, R: persian speedwell (persian speedwell [15]; 320 g/ha): 0 (Herbicidal rate of 5% or less (almost no effect)) | herbicidal effect grade, F: southern crabgrass (southern crabgrass [16]; 320 g/ha): 0 (Herbicidal rate of 5% or less (almost no effect)) | herbicidal effect rating, F: southern crabgrass (southern crabgrass [17]; [26]): 0 (Herbicidal rate of 5% or less (almost no effect)) | herbicidal effect rating, M: velvetleaf (velvetleaf [18]; [26]): 0 (Herbicidal rate of 5% or less (almost no effect)) | herbicidal effect grade, K: Italian ryegrass (Italian ryegrass [19]; 320 g/ha): 0 (Herbicidal rate of 5% or less (almost no effect)) | herbicidal effect rating, L: windgrass (windgrass [20]; [26]): 0 (Herbicidal rate of 5% or less (almost no effect)) | herbicidal effect rating, R: persian speedwell (persian speedwell [21]; [26]): 0 (Herbicidal rate of 5% or less (almost no effect)) | herbicidal effect grade, G: green foxtail (green foxtail [22]; 320 g/ha): 0 (Herbicidal rate of 5% or less (almost no effect)) | herbicidal effect on E (rice flat sedge), rating 0-5 (rice flat sedge; 320 g/ha): 3 (Herbicidal rate of 40% or more and less than 70%) | herbicidal effect rating, O: lambsquarters (lambsquarters [23]; [26]): 0 (Herbicidal rate of 5% or less (almost no effect)) | herbicidal effect on D (Chinese sprangletop), rating 0-5 (Chinese sprangletop; 320 g/ha): 0 (Herbicidal rate of 5% or less (almost no effect)) | herbicidal effect grade, N: redroot pigweed (redroot pigweed [24]; 320 g/ha): 0 (Herbicidal rate of 5% or less (almost no effect)) | herbicidal effect rating, H: barnyard grass (barnyard grass [25]; [26]): 0 (Herbicidal rate of 5% or less (almost no effect))

COc1ccc(-c2sc3ccccc3c2-c2c(O)c(OC)nn(C)c2=O)cc1OC [1-182]
herbicidal effect on H (barnyard grass), rating 0-5 (barnyard grass [1]; 80 g/ha): 4 (Herbicidal rate of 70% or more and less than 90%) | N: redroot pigweed, herbicidal effect rating (redroot pigweed [2]; AAH 80 g/ha): 5 (Herbicidal rate of 90% or more (almost completely withered)) | J: blackgrass, herbicidal effect (blackgrass [3]; AAH 80 g/ha): 0 (Herbicidal rate of 5% or less (almost no effect)) | G: green foxtail, herbicidal effect rating (green foxtail [4]; AAH 80 g/ha): 5 (Herbicidal rate of 90% or more (almost completely withered)) | H: barnyard grass, herbicidal effect (barnyard grass [5]; AAH 80 g/ha): 3 (Herbicidal rate of 40% or more and less than 70%) | L: windgrass, herbicidal effect (windgrass [6]; AAH 80 g/ha): 0 (Herbicidal rate of 5% or less (almost no effect)) | P: chickweed, herbicidal effect (chickweed [7]; AAH 80 g/ha): 5 (Herbicidal rate of 90% or more (almost completely withered)) | M: velvetleaf, herbicidal effect (velvetleaf [8]; AAH 80 g/ha): 4 (Herbicidal rate of 70% or more and less than 90%) | P: chickweed, herbicidal effect rating (chickweed [9]; AAH 80 g/ha): 4 (Herbicidal rate of 70% or more and less than 90%) | I: wild oat, herbicidal effect rating (wild oat [10]; AAH 80 g/ha): 0 (Herbicidal rate of 5% or less (almost no effect)) | O: lambsquarters, herbicidal effect (lambsquarters [11]; AAH 80 g/ha): 5 (Herbicidal rate of 90% or more (almost completely withered)) | J: blackgrass, herbicidal effect rating (blackgrass [12]; AAH 80 g/ha): 0 (Herbicidal rate of 5% or less (almost no effect)) | Q: false cleavers, herbicidal effect rating (false cleavers; AAH 80 g/ha): 0 (Herbicidal rate of 5% or less (almost no effect)) | K: Italian ryegrass, herbicidal effect rating (Italian ryegrass [13]; AAH 80 g/ha): 0 (Herbicidal rate of 5% or less (almost no effect)) | I: wild oat, herbicidal effect (wild oat [14]; AAH 80 g/ha): 0 (Herbicidal rate of 5% or less (almost no effect)) | R: persian speedwell, herbicidal effect (persian speedwell [15]; AAH 80 g/ha): 5 (Herbicidal rate of 90% or more (almost completely withered)) | F: southern crabgrass, herbicidal effect (southern crabgrass [16]; AAH 80 g/ha): 3 (Herbicidal rate of 40% or more and less than 70%) | F: southern crabgrass, herbicidal effect rating (southern crabgrass [17]; AAH 80 g/ha): 1 (Herbicidal rate of 5% or more and less than 20%) | M: velvetleaf, herbicidal effect rating (velvetleaf [18]; AAH 80 g/ha): 1 (Herbicidal rate of 5% or more and less than 20%) | K: Italian ryegrass, herbicidal effect (Italian ryegrass [19]; AAH 80 g/ha): 3 (Herbicidal rate of 40% or more and less than 70%) | L: windgrass, herbicidal effect rating (windgrass [20]; AAH 80 g/ha): 0 (Herbicidal rate of 5% or less (almost no effect)) | R: persian speedwell, herbicidal effect rating (persian speedwell [21]; AAH 80 g/ha): 5 (Herbicidal rate of 90% or more (almost completely withered)) | G: green foxtail, herbicidal effect (green foxtail [22]; AAH 80 g/ha): 4 (Herbicidal rate of 70% or more and less than 90%) | herbicidal effect on E (rice flat sedge), rating 0-5 (rice flat sedge; 80 g/ha): 5 (Herbicidal rate of 90% or more (almost completely withered)) | O: lambsquarters, herbicidal effect rating (lambsquarters [23]; AAH 80 g/ha): 4 (Herbicidal rate of 70% or more and less than 90%) | herbicidal effect on D (Chinese sprangletop), rating 0-5 (Chinese sprangletop; 80 g/ha): 3 (Herbicidal rate of 40% or more and less than 70%) | N: redroot pigweed, herbicidal effect (redroot pigweed [24]; AAH 80 g/ha): 3 (Herbicidal rate of 40% or more and less than 70%) | H: barnyard grass, herbicidal effect rating (barnyard grass [25]; AAH 80 g/ha): 0 (Herbicidal rate of 5% or less (almost no effect))
